Test results as given in PMC7555825, “New Insights of the Zn(II)-Induced P2 × 4R Positive Allosteric Modulation: Role of Head Receptor Domain SS2/SS3, E160 and D170” (International Journal of Molecular Sciences, 2020).
Residue numbers refer to the chain shown, from its start.

Legend:
[1] = target: T1, rP2 × 4R (Rattus norvegicus, UniProt P51577); experiment: ATP concentration–response curves, two-electrode voltage clamp in oocytes expressing wild type rP2 × 4R; format: cell-based
T1 construct: host or cells: Xenopus laevis oocytes (intranuclear plasmid injection, pcDNA3)
T1 sequence (P51577 1-388): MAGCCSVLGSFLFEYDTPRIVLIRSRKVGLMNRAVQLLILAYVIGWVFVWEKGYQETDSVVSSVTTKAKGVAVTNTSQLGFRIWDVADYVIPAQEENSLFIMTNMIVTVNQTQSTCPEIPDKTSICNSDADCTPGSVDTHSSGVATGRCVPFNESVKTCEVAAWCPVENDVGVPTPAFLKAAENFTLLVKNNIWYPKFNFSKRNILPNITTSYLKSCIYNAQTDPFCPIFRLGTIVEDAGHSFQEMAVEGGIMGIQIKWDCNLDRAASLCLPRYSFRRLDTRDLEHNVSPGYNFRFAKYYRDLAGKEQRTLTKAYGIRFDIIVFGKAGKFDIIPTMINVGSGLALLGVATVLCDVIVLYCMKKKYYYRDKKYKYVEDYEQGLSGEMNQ

[2] = target: T2, rP2 × 4R C132A mutant (Rattus norvegicus, UniProt P51577, C132A); experiment: ATP concentration–response curves, voltage clamp, C132A mutant; format: cell-based; settings: for EC50: ATP EC50, C132A
T2 construct: expressed in transfected cells; host or cells: Xenopus laevis oocytes
T2 sequence (P51577 1-388 C132A): T1 sequence (P51577 1-388) with C132A

[3] = target: T3, rP2 × 4R C132S/C159S mutant (Rattus norvegicus, UniProt P51577, C132S/C159S); experiment: ATP concentration–response curves, voltage clamp, C132S/C159S double mutant; format: cell-based
T3 construct: host or cells: Xenopus laevis oocytes
T3 sequence (P51577 1-388 C132S/C159S): T1 sequence (P51577 1-388) with C132S, C159S

[4] = target: T4, rP2 × 4R C126A mutant (Rattus norvegicus, UniProt P51577, C126A); experiment: ATP concentration–response curves, voltage clamp, C126A mutant
T4 sequence (P51577 1-388 C126A): T1 sequence (P51577 1-388) with C126A

[5] = target: T5, rP2 × 4R C132T/C159T mutant (Rattus norvegicus, UniProt P51577, C132T/C159T); experiment: ATP concentration–response curves, voltage clamp, C132T/C159T double mutant; format: cell-based
T5 construct: expressed in transfected cells; host or cells: Xenopus laevis oocytes
T5 sequence (P51577 1-388 C132T/C159T): T1 sequence (P51577 1-388) with C132T, C159T

[6] = test system: D170A mutant; design: method as in Kasuya et al., (2016) 38; settings: ref Kasuya et al., (2016) 38; cited from earlier work

Nc1ncnc2c1ncn2[C@@H]1O[C@H](COP(=O)(O)OP(=O)(O)OP(=O)(O)O)[C@@H](O)[C@H]1O [ATP, adenosine triphosphate]
EC50 ([1]; ATP EC50, NEM treatment + Zn(II) group, control before treatment (first ATP curve)): 24.5 ± 9.1 µM | EC50 ([1]; ATP EC50, NEM treatment + vehicle group, control before treatment (first ATP curve)): 23 ± 8.3 µM | EC50 ([1]; ATP EC50, P2 × 4 WT, control): 27.5 ± 10.6 µM | EC50 ([1]; ATP EC50, after 300 µM DTNB + 10 µM Zn(II) treatment and washout, Figure S3): 79.8 ± 64.4 µM | EC50 ([1]; ATP EC50, after 300 µM NEM + 10 µM Zn(II) treatment, control = ATP curve after treatment): 44.9 ± 17.7 µM | EC50 ([1]; ATP EC50, after 300 µM NEM + vehicle treatment, control = ATP curve after treatment): 23.8 ± 7 µM | EC50 ([1]; ATP EC50, control of the DTNB + Zn(II) experiment, Figure S3): 50.3 ± 16 µM | EC50 ([1]; ATP EC50, vehicle-treated oocytes (Barth's buffer), Figure 1A, without Zn(II)): 35.3 ± 6.6 µM | Imax ([1]; after 300 µM NEM + 10 µM Zn(II) treatment, ATP curve in presence of 10 µM Zn(II)): 9.3 ± 2.2 µA | EC50 ([2]; +10 µM Zn(II)): 19.9 ± 13.4 µM | EC50 ([2]; control): 10.2 ± 3.8 µM | EC50 ([3]; control): 20.5 ± 5 µM | EC50 ([4]; ATP EC50, C126A, +10 µM Zn(II)): 9.3 ± 3 µM | Imax ([4]; C126A, +10 µM Zn(II)): 11.7 ± 4.8 µA | EC50 ([5]; control): 27.4 ± 13.6 µM | Imax ([5]; control): 3.2 ± 0.7 µA

[Cl-].[Cl-].[Zn+2] [Zn(II), zinc chloride (ZnCl2)]
fold potentiation of the 3 µM ATP-gated currents [6]: 2 fold | fold reduction of ATP EC50 by Zn(II) ([1]; 10 µM Zn(II), vehicle-treated oocytes): 3.82 fold | fold leftward shift of ATP EC50 by Zn(II) ([1]; WT, matched paired control oocytes, 10 µM Zn(II)): 3.45 fold | Zn(II) modulation of the mutant ([2]; C132A, 10 µM Zn(II)): resistant to Zn(II) modulation | fold reduction in ATP EC50 by Zn(II) ([3]; 10 µM Zn(II)): 3.41 fold | fold reduction in ATP EC50 by Zn(II) ([4]; C126A, 10 µM Zn(II)): 4.1 fold | fold ATP EC50 reduction by Zn(II) ([5]; 10 µM Zn(II)): 5.5 fold
